Reference: US12428408B2, “Fused heterocyclic mescaline derivatives” (Enveric Biosciences Canada Inc., priority 2022, dated 2025)
Like-named read-outs stand apart in the source and are kept apart here.

Experiments:
NET (h) = molecular target: T1, NET (h) (Homo sapiens, UniProt P23975); experiment: Competition assay to measure binding affinity at norepinephrine transporter (NET); conditions: test ligand 10 μM; [3H]nisoxetine 1 nM
T1 construct: host or cells: CHO cells

MT1 (ML1A) (h) = molecular target: T2, MT1 (ML1A) (h) (Homo sapiens, UniProt P48039); experiment: Competition assay to measure binding affinity at MT1 receptor; conditions: test ligand 10 μM; [125I]2-iodomelatonin 0.01 nM
T2 construct: host or cells: CHO cells
T2 sequence (P48039 whole entry): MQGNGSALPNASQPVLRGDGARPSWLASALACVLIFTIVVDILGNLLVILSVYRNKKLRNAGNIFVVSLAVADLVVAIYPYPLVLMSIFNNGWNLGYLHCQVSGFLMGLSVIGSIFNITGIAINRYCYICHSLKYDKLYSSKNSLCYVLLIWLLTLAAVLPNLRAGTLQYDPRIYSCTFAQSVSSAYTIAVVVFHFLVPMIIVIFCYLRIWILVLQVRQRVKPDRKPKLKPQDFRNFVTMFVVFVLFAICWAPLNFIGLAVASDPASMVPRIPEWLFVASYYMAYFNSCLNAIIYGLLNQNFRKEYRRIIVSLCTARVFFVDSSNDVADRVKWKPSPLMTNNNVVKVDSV

5-HT7 (h) = molecular target: T3, 5-HT7 (h) (Homo sapiens, UniProt P34969); experiment: Competition assay to measure binding affinity at 5-HT7 receptor; conditions: test ligand 10 μM; [3H]LSD 4 nM
T3 construct: host or cells: HEK-293 cells
T3 sequence (P34969 whole entry): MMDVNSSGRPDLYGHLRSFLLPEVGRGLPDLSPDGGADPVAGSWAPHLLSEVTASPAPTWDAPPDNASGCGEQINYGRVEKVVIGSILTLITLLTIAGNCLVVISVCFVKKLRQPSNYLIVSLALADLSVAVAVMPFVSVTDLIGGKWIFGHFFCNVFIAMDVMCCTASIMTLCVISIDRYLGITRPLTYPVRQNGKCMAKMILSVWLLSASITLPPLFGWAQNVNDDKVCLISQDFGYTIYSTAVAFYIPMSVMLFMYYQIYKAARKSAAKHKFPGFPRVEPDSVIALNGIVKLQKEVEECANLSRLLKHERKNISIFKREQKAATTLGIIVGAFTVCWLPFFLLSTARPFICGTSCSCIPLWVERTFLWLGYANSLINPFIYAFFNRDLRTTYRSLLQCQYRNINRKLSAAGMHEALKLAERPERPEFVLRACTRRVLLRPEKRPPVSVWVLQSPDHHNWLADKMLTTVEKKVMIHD

5-HT2B (h) = molecular target: T4, 5-HT2B (h) (Homo sapiens, UniProt P41595); experiment: Competition assay to measure binding affinity at 5-HT2B receptor; conditions: test ligand 10 μM; [3H]mesulergine 2 nM
T4 construct: host or cells: CHO cells
T4 sequence (P41595 whole entry): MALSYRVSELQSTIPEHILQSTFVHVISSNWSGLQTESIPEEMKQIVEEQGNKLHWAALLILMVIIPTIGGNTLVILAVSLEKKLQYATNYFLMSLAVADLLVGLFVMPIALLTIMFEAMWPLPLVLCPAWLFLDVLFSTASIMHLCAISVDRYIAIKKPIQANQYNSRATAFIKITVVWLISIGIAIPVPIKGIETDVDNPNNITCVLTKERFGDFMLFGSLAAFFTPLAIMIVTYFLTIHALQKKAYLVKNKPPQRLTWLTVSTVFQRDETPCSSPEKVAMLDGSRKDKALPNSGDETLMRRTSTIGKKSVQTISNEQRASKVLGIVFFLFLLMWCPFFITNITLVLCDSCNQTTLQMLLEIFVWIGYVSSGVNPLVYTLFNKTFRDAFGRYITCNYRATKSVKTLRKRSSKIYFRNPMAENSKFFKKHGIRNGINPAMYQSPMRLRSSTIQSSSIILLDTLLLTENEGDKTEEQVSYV

D2 (h) = molecular target: T5, D2 (h) (Homo sapiens, UniProt P14416); experiment: Competition assay to measure binding affinity at D2L receptor; conditions: test ligand 10 μM; [3H]methylspiperone 0.3 nM
T5 construct: host or cells: HEK-293 cells
T5 sequence (P14416 whole entry): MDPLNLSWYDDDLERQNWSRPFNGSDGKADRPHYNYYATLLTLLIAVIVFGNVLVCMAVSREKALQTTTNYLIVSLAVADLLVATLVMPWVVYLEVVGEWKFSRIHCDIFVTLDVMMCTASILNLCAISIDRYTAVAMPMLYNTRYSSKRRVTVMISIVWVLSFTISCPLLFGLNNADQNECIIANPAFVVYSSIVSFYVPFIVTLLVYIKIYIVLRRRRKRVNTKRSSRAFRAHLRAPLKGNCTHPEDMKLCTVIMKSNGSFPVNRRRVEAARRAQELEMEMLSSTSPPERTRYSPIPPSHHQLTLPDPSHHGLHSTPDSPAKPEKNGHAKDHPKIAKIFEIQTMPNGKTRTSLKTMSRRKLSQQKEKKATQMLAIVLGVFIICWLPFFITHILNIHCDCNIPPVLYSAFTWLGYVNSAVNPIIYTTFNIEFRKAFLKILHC

5-HT1B (h) = molecular target: T6, 5-HT1B (h) (Homo sapiens, UniProt P28222); experiment: Competition assay to measure binding affinity at 5-HT1B receptor; conditions: test ligand 10 μM; [3H]GR125743 1 nM
T6 construct: host or cells: Chem-1 (RBL) cells
T6 sequence (P28222 whole entry): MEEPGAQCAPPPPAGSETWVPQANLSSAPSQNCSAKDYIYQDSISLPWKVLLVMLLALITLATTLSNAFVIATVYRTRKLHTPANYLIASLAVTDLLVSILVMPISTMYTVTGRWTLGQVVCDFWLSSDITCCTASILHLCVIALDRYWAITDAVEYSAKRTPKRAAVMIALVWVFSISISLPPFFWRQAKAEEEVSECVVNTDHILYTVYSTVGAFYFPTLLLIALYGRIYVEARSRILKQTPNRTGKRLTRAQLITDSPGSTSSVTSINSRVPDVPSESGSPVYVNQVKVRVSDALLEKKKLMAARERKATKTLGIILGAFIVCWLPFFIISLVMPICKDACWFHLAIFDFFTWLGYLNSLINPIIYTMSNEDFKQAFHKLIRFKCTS

5-HT1D (r) = molecular target: T7, 5-HT1D (r) (Rattus norvegicus, UniProt P28565); experiment: Competition assay to measure binding affinity at 5-HT1D receptor; conditions: test ligand 10 μM; [3H]serotonin 1 nM
T7 construct: host or cells: CHO cells
T7 sequence (P28565 whole entry): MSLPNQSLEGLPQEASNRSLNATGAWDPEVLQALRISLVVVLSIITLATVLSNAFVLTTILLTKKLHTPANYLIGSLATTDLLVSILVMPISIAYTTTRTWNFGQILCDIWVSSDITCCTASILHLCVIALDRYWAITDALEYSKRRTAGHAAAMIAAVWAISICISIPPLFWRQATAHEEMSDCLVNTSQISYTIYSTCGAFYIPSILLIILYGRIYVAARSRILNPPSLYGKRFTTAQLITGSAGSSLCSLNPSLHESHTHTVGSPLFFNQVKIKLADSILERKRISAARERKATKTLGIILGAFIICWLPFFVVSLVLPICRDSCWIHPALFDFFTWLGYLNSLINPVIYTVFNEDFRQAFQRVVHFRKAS

[1] = molecular target: T8, human serotonin transporter (SERT) (Homo sapiens, UniProt P31645); experiment: biochemical; format: binding
T8 construct: purchased PerkinElmer RBHSTM400UA
T8 sequence (P31645 whole entry): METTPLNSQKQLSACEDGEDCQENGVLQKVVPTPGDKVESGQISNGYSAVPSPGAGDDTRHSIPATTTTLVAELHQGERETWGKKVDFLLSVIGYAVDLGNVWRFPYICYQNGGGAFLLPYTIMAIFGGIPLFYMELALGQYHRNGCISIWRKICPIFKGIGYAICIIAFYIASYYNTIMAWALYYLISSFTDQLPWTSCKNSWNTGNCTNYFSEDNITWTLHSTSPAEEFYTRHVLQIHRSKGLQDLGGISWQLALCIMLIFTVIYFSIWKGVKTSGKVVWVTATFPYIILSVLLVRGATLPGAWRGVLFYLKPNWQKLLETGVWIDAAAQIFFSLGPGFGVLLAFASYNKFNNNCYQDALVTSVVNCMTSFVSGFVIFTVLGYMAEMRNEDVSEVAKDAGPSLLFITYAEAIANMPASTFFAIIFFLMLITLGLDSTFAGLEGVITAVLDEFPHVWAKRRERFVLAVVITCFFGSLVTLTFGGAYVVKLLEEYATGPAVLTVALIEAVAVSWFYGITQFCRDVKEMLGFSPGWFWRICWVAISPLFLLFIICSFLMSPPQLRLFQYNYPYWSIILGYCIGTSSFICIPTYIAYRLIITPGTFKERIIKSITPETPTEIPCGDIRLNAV

5-HT2A receptor = 5-HT2A receptor (Homo sapiens, UniProt P28223); experiment: 5-HT2A receptor radioligand competition assay (SPA)
Chain of 5-HT2A receptor (P28223 whole entry): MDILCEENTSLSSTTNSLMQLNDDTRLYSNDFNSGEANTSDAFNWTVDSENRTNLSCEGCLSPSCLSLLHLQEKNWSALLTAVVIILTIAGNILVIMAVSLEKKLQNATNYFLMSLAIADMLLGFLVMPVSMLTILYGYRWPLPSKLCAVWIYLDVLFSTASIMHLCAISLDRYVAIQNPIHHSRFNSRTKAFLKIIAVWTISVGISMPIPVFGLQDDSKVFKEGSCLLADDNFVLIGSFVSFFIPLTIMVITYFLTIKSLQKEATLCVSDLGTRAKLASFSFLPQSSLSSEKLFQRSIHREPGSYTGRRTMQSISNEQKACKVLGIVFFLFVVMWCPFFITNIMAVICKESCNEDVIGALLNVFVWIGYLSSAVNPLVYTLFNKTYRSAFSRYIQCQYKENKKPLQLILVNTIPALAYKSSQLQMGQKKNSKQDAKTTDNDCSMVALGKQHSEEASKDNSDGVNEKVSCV

5-HT2C (h) = molecular target: T9, 5-HT2C (h) (Homo sapiens, UniProt P28335); experiment: Competition assay to measure binding affinity at 5-HT2C receptor; conditions: test ligand 10 μM; [125I](±)DOI 0.1 nM
T9 construct: host or cells: HEK-293 cells
T9 sequence (P28335 33-458): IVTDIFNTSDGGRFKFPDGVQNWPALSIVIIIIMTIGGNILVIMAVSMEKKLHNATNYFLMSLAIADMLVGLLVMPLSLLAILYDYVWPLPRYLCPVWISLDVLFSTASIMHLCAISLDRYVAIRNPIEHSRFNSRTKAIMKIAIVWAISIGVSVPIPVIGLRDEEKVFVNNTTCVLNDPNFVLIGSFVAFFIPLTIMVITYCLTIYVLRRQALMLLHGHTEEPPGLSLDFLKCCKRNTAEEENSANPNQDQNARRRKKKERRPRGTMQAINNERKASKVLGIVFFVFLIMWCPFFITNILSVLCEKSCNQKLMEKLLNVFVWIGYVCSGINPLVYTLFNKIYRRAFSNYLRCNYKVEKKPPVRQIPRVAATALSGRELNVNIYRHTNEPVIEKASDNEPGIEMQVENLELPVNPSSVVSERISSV

alpha2A (h) = molecular target: T10, alpha2A (h) (Homo sapiens, UniProt P08913); experiment: Competition assay to measure binding affinity at alpha2A receptor; conditions: test ligand 10 μM; [3H]RX 821002 1 nM; read-out: α-2A, percent of control-specific binding
T10 construct: host or cells: CHO cells
T10 sequence (P08913 1-465): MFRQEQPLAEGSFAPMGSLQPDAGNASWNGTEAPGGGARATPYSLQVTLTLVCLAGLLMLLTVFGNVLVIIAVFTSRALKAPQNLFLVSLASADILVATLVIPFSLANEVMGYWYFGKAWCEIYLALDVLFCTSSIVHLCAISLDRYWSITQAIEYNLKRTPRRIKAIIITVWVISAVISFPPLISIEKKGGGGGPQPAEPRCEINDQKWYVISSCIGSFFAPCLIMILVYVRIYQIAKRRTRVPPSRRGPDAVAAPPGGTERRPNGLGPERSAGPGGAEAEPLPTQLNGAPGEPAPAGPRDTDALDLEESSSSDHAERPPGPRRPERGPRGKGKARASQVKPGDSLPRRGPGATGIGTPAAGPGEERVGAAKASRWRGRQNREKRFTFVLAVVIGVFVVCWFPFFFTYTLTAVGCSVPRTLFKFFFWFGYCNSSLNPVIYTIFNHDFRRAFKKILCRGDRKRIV

5-HT1A receptor = molecular target: T11, 5-HT1A receptor (Homo sapiens, UniProt P08908); experiment: 5-HT1A receptor radioligand competition assay (SPA); format: binding
T11 construct: purchased Perkin Elmer 6110501400UA
T11 sequence (P08908 1-422): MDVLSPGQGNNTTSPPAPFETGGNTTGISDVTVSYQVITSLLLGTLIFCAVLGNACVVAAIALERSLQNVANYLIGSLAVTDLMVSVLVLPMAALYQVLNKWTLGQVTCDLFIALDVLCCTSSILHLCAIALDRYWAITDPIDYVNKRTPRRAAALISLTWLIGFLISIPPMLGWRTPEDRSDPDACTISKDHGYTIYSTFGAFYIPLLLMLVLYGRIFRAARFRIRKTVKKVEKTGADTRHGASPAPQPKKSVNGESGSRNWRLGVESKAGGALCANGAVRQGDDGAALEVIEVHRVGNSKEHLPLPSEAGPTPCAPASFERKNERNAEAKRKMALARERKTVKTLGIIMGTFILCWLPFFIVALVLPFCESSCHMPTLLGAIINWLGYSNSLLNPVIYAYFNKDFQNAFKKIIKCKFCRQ

DAT (h) = molecular target: T12, DAT (h) (Homo sapiens, UniProt Q01959); experiment: Competition assay to measure binding affinity at dopamine transporter (DAT); conditions: test ligand 10 μM; [3H]BTCP 4 nM
T12 construct: host or cells: CHO cells

D3 (h) = molecular target: T13, D3 (h) (Homo sapiens, UniProt P35462); experiment: Competition assay to measure binding affinity at D3 receptor; conditions: test ligand 10 μM; [3H]methylspiperone […]
T13 construct: host or cells: CHO cells
T13 sequence (P35462 whole entry): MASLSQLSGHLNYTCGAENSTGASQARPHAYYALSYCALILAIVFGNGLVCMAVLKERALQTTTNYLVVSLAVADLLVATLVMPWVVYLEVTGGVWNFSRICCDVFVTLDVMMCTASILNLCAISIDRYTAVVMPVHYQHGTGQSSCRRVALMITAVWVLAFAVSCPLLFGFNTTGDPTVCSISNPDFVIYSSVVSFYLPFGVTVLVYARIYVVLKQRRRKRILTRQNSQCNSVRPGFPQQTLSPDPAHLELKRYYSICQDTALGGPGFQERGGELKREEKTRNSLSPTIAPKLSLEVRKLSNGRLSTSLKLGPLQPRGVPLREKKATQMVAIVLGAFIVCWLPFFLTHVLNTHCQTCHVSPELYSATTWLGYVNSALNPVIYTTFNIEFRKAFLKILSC

[2] = competition with 0.5 nM 8-hydroxy-DPAT [3H], test compound 3 nM to 1 mM, read-out: 5-HT1A, Ki

T1 sequence (P23975 whole entry): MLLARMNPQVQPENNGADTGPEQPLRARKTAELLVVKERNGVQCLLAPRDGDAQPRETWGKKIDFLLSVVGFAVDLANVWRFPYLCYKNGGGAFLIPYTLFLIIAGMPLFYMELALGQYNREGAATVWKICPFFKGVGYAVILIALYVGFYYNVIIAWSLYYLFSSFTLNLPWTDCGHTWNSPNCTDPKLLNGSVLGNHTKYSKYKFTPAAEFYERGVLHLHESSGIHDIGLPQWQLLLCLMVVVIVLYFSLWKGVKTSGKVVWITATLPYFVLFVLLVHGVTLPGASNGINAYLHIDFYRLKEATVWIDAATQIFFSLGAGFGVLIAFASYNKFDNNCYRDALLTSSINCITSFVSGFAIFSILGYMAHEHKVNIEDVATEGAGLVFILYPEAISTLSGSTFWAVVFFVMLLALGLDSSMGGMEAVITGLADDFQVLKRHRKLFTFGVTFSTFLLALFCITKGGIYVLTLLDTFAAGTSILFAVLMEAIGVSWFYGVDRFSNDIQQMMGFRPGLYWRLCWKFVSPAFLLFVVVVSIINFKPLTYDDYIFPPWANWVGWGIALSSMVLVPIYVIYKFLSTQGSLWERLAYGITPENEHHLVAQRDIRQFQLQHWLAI

| Compound | NET, percent of control-specific binding (NET (h)) [%] | MT1, percent of control-specific binding (MT1 (ML1A) (h)) [%] | HT7, percent of control-specific binding (5-HT7 (h)) [%] | HT2B, percent of control-specific binding (5-HT2B (h)) [%] | D2, percent of control-specific binding (D2 (h)) [%] | HT1B, percent of control-specific binding (5-HT1B (h)) [%] | HT1D, percent of control-specific binding (5-HT1D (r)) [%] | Ki [1] [µM] | Ki (5-HT2A receptor) [µM] | HT2C, percent of control-specific binding (5-HT2C (h)) [%] | inhibition at 10 µM (alpha2A (h)) [%] | Ki (5-HT1A receptor) [µM] | DAT, percent of control-specific binding (DAT (h)) [%] | D3, percent of control-specific binding (D3 (h)) [%] | Ki (5-HT1A receptor; [2]) [µM] |
| --- | --- | --- | --- | --- | --- | --- | --- | --- | --- | --- | --- | --- | --- | --- | --- |
| CC(Cc1ccc2c(c1)OCO2)N1CCOCC1 (stereo not drawn) [A(III)] | 0 | 0 | 3 | 13 | 12 | 0 | 0 | 26.3 | 42 | 3 | 32 | 38.6 | 9 | 9 |  |
| COc1cc2c(cc1CNC(C)Cc1ccc3c(c1)OCCO3)OCO2 (stereo not drawn) [A(X)] | 49 | 15 | 59 | 89 | 13 | 0 | 10 | 2.36 | 12 | 63 | 81 | 1.1 | 84 | 25 |  |
| COc1cc2c(cc1CNC(C)Cc1ccc3c(c1)OCO3)OCO2 (stereo not drawn) [A(V)] | 83 | 23 | 68 | 92 | 19 | 0 | 0 | 1.28 | 19 | 90 | 74 | 1.88 | 84 | 23 |  |
| CC(Cc1ccc2c(c1)OCO2)N1CCC1 (stereo not drawn) [A(II)] | 77 | 3 | 59 | 84 | 13 | 17 | 43 | 1.87 | 13 | 94 | 60 | 0.926 | 86 | 56 |  |
| O=C(Cc1ccc2c(c1)OC(F)(F)O2)N1CCCC1 [A(XXVII)] | 15 | 2 | 0 | 5 | 0 | 0 | 2 | 634 |  | 9 | 0 |  | 5 | 0 | > 1000 |
| COc1cc2c(cc1CC(=O)NCCO)OCO2 [A(XXII)] | 1 | 18 | 20 | 14 | 0 | 0 | 5 | 52.3 |  | 15 | 0 |  | 0 | 3 | > 1000 |
| O=C(Cc1c(Br)ccc2c1OCO2)N1CCCC1 [A(XXVI)] | 0 | 30 | 0 | 1 | 0 | 0 | 0 |  | 31 | 1 | 0 |  | 0 | 0 | 44.4 |
| CON(C)C(C)Cc1ccc2c(c1)OCO2 (stereo not drawn) [A(XVIII)] | 1 | 6 | 6 | 9 | 0 | 6 | 0 | 98 |  | 3 | 0 |  | 5 | 5 | > 1000 |
